Test results from patent US20080299123A1, “TREATMENT OF CHEMOTHERAPY- OR RADIOTHERAPY-RESISTANT TUMORS” (Deutsches Krebsforschungszentrum Stiftung des offentlichen …, priority 2006, published 2008).

Tests used:
L1CAM = L1CAM cleavage by western blotting in L1CAM transfected PT45-P1 cells; format: cell-based, human; conditions: inhibitor 10 μmol/L, 24 hours
Protocol: PT45-P1res cells (a,b) or PT45-P1 cells transfected with L1CAM or an empty control vector (mock) (c,d) were left untreated (w/o) or were either treated with Tapi-0, Tapi-1, GM6001 or L685,458 (each 10 μmol/L) for 24 hours. (a,c) Cellular lysates were subjected to western blotting using either the antibody clone UJ127 from Acris detecting only full-length L1CAM or the pcytL1 antibody detecting also the cytoplasmic part of L1CAM. HSP90 was detected as a control for equal protein load. (b,d) Thirty minutes after treatment with the respective inhibitor, cells were either left untreated or treated with 20 μg/mL etoposide for 24 hours. Then, cells were analysed for caspase-3/-7 activity expressed as n-fold induction of caspase-3/-7 activity of basal. Means±SD from three independent experiments are shown. * indicates p<0.05.
Cells were seeded into 6 well and 12 well plates, respectively, and transfected or treated as indicated. Then, cells were washed once with PBS and lysed with 1 volume of 2×SDS sample buffer (128 mmol/L Tris-Base, 4.6% SDS, 10% glycerol). Samples were heated for 5 minutes at 95° C. and put on ice for 2 minutes. Protein concentrations were determined using the Dc Protein assay (BioRad). Ten μg of protein adjusted to an appropriate volume of SDS sample buffer containing 0.2 mg/mL bromphenolblue (Serva, Heidelberg, Germany) and 2.5% β-mercaptoethanol (Biomol, Hamburg, Germany) were submitted to electrophoresis on a 4-20% ProGel-Tris-glycin-gel (Anamed, Darmstadt, Germany) and immunoblotting was performed as described previously (Arlt et al, 2001). For detection of L1CAM, a monoclonal antibody (clone UJ127 from Acris Antibodies) was diluted at a concentration of 0.4 μg/mL in 5% nonfat milk powder and 0.05% Tween in TBS (blotto) and incubated overnight at 4° C. For detection of the cytoplasmic domain of L1CAM, the pcytL1 antibody (Mechtersheimer et al., 2001) was used at a concentration of 1 μg/mL in blotto and incubated overnight at 4° C. As control of equal protein load, a polyclonal rabbit antibody for HSP90 (Santa Cruz, Heidelberg, Germany) was diluted 1:2000 in blotto. The mouse anti CD51 antibody from Beckman Coulter GmbH (Krefeld, Germany) was used at a concentration of 1:500 in blotto for detection of human αv integrin. Incubation with the primary antibodies was performed overnight at 4° C. For detection of the primary antibodies, anti-mouse and anti-rabbit HRP-linked antibodies (Cell Signaling), respectively, were used at a dilution of 1:2000 in blotto-TBST at room temperature for 1 hour. After washing in TBST, blots were developed using the LumiGlo peroxidase detection kit (Cell Signaling).

PT45-P1res cells = test: Caspase-3/-7 assay in PT45-P1res cells; format: cell-based, human; conditions: inhibitor 10 μmol/L, 20 μg/mL etoposide 24 hours
Protocol: (a) PT45-P1 res cells were transfected with control siRNA or with two L1CAM specific siRNAs. Western blotting for the detection of full-length L1CAM or of HSP90 as a control for equal protein load was performed (upper panel). In parallel, siRNA transfected PT45-P1res cells were treated with 20 μg/mL etoposide or not for 24 hours and caspase-3/-7 activity was determined. (b) siRNA transfected PT45-P1res cells were subjected to L1CAM immunostaining (L1-11A antibody) or staining with an isotype matched control antibody followed by flow cytometry. One representative histogram is shown. (c) siRNA transfected PT45-P1res cells were analysed by western blotting for the detection of full-length L1 CAM, αv-integrin or HSP90 (d) After overnight siRNA transfection, cells were either left untreated or were either treated with 20 μg/mL etoposide or with 5 μg/mL gemcitabine for 24 hours, followed by either AnnexinV/PI staining and flow cytometry (AnnexinV positive cells over basal) or by caspase-3/-7 assay (n-fold induced caspase-3/-7 activity of basal). (e) PT45-P1res cells were either left untreated (w/o) or were treated with 20 μg/mL etoposide in the absence (w/o) or presence of either 5 μg/mL anti L1CAM antibody (Clone L1-11A) or 5 μg/mL isotype matched control antibody. After 24 hours, cells were analysed by AnnexinV/PI staining or by caspase-3/-7 assay. Means±SD from three independent experiments are shown. * indicates p<0.05.
As described elsewhere (Sebens Müerköster et al., 2006), apoptosis was determined by staining with annexinV/propidium iodide (Biocarta, Hamburg, Germany) and subsequent fluorescence flow cytometry (GalaxyArgon Plus; DAKO Cytomation, Hamburg, Germany) using the FLOMAX software, and by the detection of caspase-3/-7 activity using a homogeneous luminescent assay (Promega, Mannheim, Germany). All samples were measured in duplicates.
For L1CAM transfection, PT45-P1 cells were seeded into 6 well plates (2×10^5 cells/well), were grown overnight, followed by transfection with 5 μL/well DIMRIE reagent (Invitrogen) and 0.6 μg/well of the following plasmids: pcDNA3.1 (mock) or pcDNA3.1-L1CAM (L1CAM). Upon transfection for 18 hours, 1 mL medium containing 20% FCS was added and cells were left untreated or were treated as indicated for further 24 hours. For knock down of L1CAM, PT45-P1res cells were seeded into 12 well plates (1×10^5 cells/well), were grown overnight followed by transfection with 12 μL/well RNAiFect reagent (Invitrogen) and 2 μg/well of either Stealth negative control siRNA (Invitrogen) or Stealth L1CAM siRNA (Invitrogen). After overnight transfection, cells were either left untreated or treated as indicated for further 24 hours.

`CC(C)C[C@H](CC(=O)NO)C(=O)N[C@@H](Cc1ccc2ccccc2c1)C(=O)N[C@@H](C)C(N)=O` [TAPI-0] was tested, and the “expression of full-length L1CAM and level of the 32 kD fragment” value (L1CAM) was “did neither influence the expression of full-length L1CAM nor increased the level of the 32 kD fragment” and the “apoptosis induction after etoposide treatment (caspase-3/-7)” value (PT45-P1res cells) was “did not significantly affect apoptosis induction after etoposide treatment”.
